Paper PMC3254626, “Targeting RNA Polymerase Primary σ^70 as a Therapeutic Strategy against Methicillin-Resistant Staphylococcus aureus by Antisense Peptide Nucleic Acid” (PLoS ONE, 2012)
≈ marks a conversion by molar mass, not a printed value. Where two headings read alike, the source gives them in different places. Square brackets hold non-standard residues; d marks the D form. Peptide text beside a SMILES is read from it. Ahx = NCCCCCC(=O)O; βAla = NCCC(=O)O

How the values were obtained:
Assay in all cases: microbe, parasite or virus in culture
Type in all cases: cell-based, Staphylococcus aureus
[1] = tested on: MRSA WHO-2; settings: read-out: MIC for S. aureus strains, WHO-2
Source text: (§1) Secondary structure of rpoD mRNA predicted by RNA structure 4.6 software. […] Building from evidence that 12-base antisense PNAs was an effective length, five plausible target sites located in the region that satisfied both above aspects were chosen for synthesis of complementary antisense PNAs at 12-base length. Effective target site in rpoD was verified by modified MIC test of PPNA in four S. aureus strains with different characteristics in resistance phenotype. All PNAs used are covalently conjugated with the same cell penetrating peptide (KFF)3K at the carbon terminus (corresponding to the 3′ end of a conventional oligonucleotide).
(§2) Optimal anti-rpoD PPNA was selected by minimal inhibitory concentration (MIC) results determined for clinical isolates of pathogenic S. aureus species.
(§3) MICs were determined twice by the microdilution assay in sterilized 96-well polypropylene microtiter plates according to the broth microdilution guideline based on Good et al.. Briefly, single colony overnight culture of subjected bacterial cells was diluted to give a final inoculation at 10^5 CFU/mL in duplicate 100 µL Mueller Hinton (MH) broth in a low-binding 96-well microtiter plate. Stocks of PPNA, Scr PPNA and CPPs were added immediately to the indicated final concentrations. Plates were incubated at 35°C in aerobic environment for 24 h of overnight culture. MICs were the lowest PNA concentrations that prevented bacterial growth by visual inspection after overnight (24 h) growth. To verify the specific antisense effect, peptide was also conjugated to a scrambled PNA with a base sequence that was not complementary to the selected target site of rpoD mRNA. To control for nonspecific toxicity, the MIC of the control CPPs (KFF)3K and (RXR)4XB in all cases, was above the limit of measurement, which was 60 or 30 µM.

[2] = tested on: S. aureus ATCC29213; settings: read-out: MIC for S. aureus strains, ATCC 29213
Source text: as §1, §2, §3

[3] = tested on: MRSA XIJING (MDR clinical isolate); settings: broth microdilution, MH broth, inoculum 10^5 CFU/mL, 35°C, 24 h, visual inspection, determined twice, read-out: MIC for S. aureus strains, XIJING
Source text: as §1, §2, §3

[4] = tested on: MRSA/VISA Mu50; settings: broth microdilution, MH broth, inoculum 10^5 CFU/mL, 35°C, 24 h, visual inspection, determined twice, read-out: MIC for S. aureus strains, Mu 50
Source text: as §1, §2, §3

[5] = Staphylococcus aureus, broth microdilution, MH broth, inoculum 10^5 CFU/mL, 35°C, 24 h, visual inspection, determined twice, MRSA
[6] = Staphylococcus aureus, ATCC29213, broth microdilution, MH broth, inoculum 10^5 CFU/mL, 35°C, 24 h, visual inspection, determined twice, antibiotic sensitive QC strain

Row | SMILES | MIC ([1]; WHO-2, 24 h) [µM] | MIC ([2]; ATCC29213, 24 h) [µM] | MIC [3] [µM] | MIC [4] [µM] | MIC [1, 5] [µM] | MIC ([3]; Staphylococcus aureus) [µM] | MIC ([4]; Staphylococcus aureus) [µM] | MIC [2, 6] [µM] | MIC ([1]; broth microdilution, MH broth, inoculum 10^5 CFU/mL, 35°C, 24 h, visual inspection, determined twice, MRSA) [µM] | MIC ([2]; broth microdilution, MH broth, inoculum 10^5 CFU/mL, 35°C, 24 h, visual inspection, determined twice, antibiotic sensitive QC strain) [µM]
1 | NCCCC[C@H](NC(=O)[C@H](Cc1ccccc1)NC(=O)[C@H](Cc1ccccc1)NC(=O)[C@H](CCCCN)NC(=O)[C@H](Cc1ccccc1)NC(=O)[C@H](Cc1ccccc1)NC(=O)[C@H](CCCCN)NC(=O)[C@H](Cc1ccccc1)NC(=O)[C@H](Cc1ccccc1)NC(=O)[C@@H](N)CCCCN)C(=O)O [(KFF)3K] (H-KFFKFFKFFK-OH) | >60 | >60 |  |  |  |  |  |  |  | 
2 | N=C(N)NCCC[C@H](NC(=O)CCCCCNC(=O)[C@H](CCCNC(=N)N)NC(=O)[C@H](CCCNC(=N)N)NC(=O)CCCCCNC(=O)[C@H](CCCNC(=N)N)NC(=O)[C@H](CCCNC(=N)N)NC(=O)CCCCCNC(=O)[C@H](CCCNC(=N)N)NC(=O)[C@H](CCCNC(=N)N)NC(=O)CCCCCNC(=O)[C@@H](N)CCCNC(=N)N)C(=O)NCCCCCC(=O)NCCC(=O)O [(RXR)4XB] (H-R[Ahx]RR[Ahx]RR[Ahx]RR[Ahx]R[Ahx][βAla]-OH) | > 30 | > 30 | > 30 | > 30 |  |  |  |  |  | 
3 | CC1(C)S[C@@H]2[C@H](NC(=O)[C@H](N)c3ccccc3)C(=O)N2[C@H]1C(=O)O [ampicillin] |  |  |  |  | 256 (≈ 89.4 µg/mL) | > 1020 | > 1020 | 1 (≈ 0.349 µg/mL) |  | 
4 | CC(C)(O/N=C(\C(=O)N[C@@H]1C(=O)N2C(C(=O)[O-])=C(C[n+]3ccccc3)CS[C@H]12)c1csc(N)n1)C(=O)O [ceftazidine] |  |  | >1024 | 1024 (≈ 560 µg/mL) |  |  |  |  | 256 (≈ 140 µg/mL) | 8 (≈ 4.37 µg/mL)
5 | Cc1onc(-c2ccccc2)c1C(=O)N[C@@H]1C(=O)N2[C@@H]1SC(C)(C)[C@@H]2C(=O)O [oxacillin] |  |  |  |  | 512 (≈ 206 µg/mL) | > 1020 | > 1020 | 0.5 (≈ 0.201 µg/mL) |  | 
